Measurements as given in PMC12668310, “High‐Throughput Synthesis and Screening of a Cyanimide Library Identifies Selective Inhibitors of ISG15‐Specific Protease mUSP18” (Angewandte Chemie (International Ed. in English), 2025).
Like-named read-outs stand apart in the source and are kept apart here.

Target: T1, mUSP18 (Mus musculus, UniProt Q9WTV6)
T1 construct: (46-368); His-tag (N); made in house
T1 sequence (Q9WTV6 46-368): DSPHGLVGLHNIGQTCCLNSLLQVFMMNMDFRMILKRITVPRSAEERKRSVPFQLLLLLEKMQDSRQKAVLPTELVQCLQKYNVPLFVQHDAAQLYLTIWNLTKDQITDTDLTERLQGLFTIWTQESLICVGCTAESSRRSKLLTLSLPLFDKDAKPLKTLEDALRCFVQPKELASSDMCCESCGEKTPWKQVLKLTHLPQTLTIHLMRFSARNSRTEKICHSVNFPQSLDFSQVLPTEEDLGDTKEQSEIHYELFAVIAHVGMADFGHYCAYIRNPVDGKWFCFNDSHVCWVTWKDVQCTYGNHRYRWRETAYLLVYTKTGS
Experiment: High-throughput screening, ISG15ct-RhoMP, single dose 1.25 µM
Format: biochemical, murine
Conditions: mUSP18 %inhibition

[1] = carboxylic acid (CA) building block alone, read-out: %inh CA only
[2] = carboxylic acid (CA) with coupling reagents DIC/HOBT, read-out: %inh CA + DIC/HOBT

| Compound | inhibition at 1.25 µM [1] [%] | inhibition at 1.25 µM [2] [%] | %inh CA only (carboxylic acid (CA) building block alone) [%] | %inh CA + DIC/HOBT (carboxylic acid (CA) with coupling reagents DIC/HOBT) [%] |
| --- | --- | --- | --- | --- |
| CN1CCN(C(=O)C2CC=CCC2C(=O)O)CC1 (centres unmarked) [CA181] | 2.59 | 16.4 |  |  |
| O=C(O)c1ccnn1C1CCOCC1 [CA216] | 6.01 | 2.43 |  |  |
| O=C(O)c1cc(Cn2cc(Cl)cn2)cs1 [CA275] | 8.26 | 6.3 |  |  |
| CC(C)(C)OC(=O)N[C@@H](Cc1cn(-c2ccc([N+](=O)[O-])cc2[N+](=O)[O-])cn1)C(=O)O [CA022] | -4.55 | -8.26 |  |  |
| O=C(O)c1cc(OCc2ccccc2)ccn1 [CA150] | 3.17 | 5.95 |  |  |
| O=C(O)c1cc([N+](=O)[O-])ccc1Br [CA054] | -7.96 | -15.9 |  |  |
| CC(C(=O)O)n1nc(C(F)(F)F)cc1C1CC1 (centres unmarked) [CA227] | 2.61 | 2.83 |  |  |
| Cc1cnn(-c2c(C(=O)O)c(C)nn2C)c1 [CA110] | 12.9 | 15 |  |  |
| Cc1ncc(C(=O)O)s1 [CA082] | -10.3 | -14.8 |  |  |
| Cc1nn(-c2ccccn2)c(C)c1CC(=O)O [CA315] | 3.49 | -2.69 |  |  |
| COc1ccc(C(=O)O)cc1S(=O)(=O)NCc1ccccn1 [CA278] | 3.79 | 6.92 |  |  |
| O=Cc1cn(CC(=O)O)c2ccccc12 [CA036] | -2.36 | -8.7 |  |  |
| CC(=O)CCC(=O)O [CA056] | -7.82 | -15.2 |  |  |
| Cc1oc(-c2ccsc2)nc1CC(=O)O [CA425] | 2.13 | -7.19 |  |  |
| O=C(O)c1sc(N2CCCC2)nc1Cl [CA311] | 3.86 | -3.06 |  |  |
| O=C(O)Cc1cccc(OCc2cccnc2)c1 [CA202] | 0.44 | 3.16 |  |  |
| CC(=O)N1CCC(C(=O)O)CC1 [CA088] | -2.57 | -12.6 |  |  |
| COc1ccccc1-c1nnc(CC(=O)O)o1 [CA162] | 23.2 | 4.62 |  |  |
| O=C(O)c1ccc(N2CCCC2)c(F)c1 [CA295] | -4.32 | 40.8 |  |  |
| CCn1cc(S(=O)(=O)N2CCC(C(=O)O)CC2)cn1 [CA122] | 11.4 | 5.98 |  |  |

| Compound | inhibition at 1.25 µM [1] [%] | inhibition at 1.25 µM [2] [%] | %inh CA only (carboxylic acid (CA) building block alone) [%] | %inh CA + DIC/HOBT (carboxylic acid (CA) with coupling reagents DIC/HOBT) [%] |
| --- | --- | --- | --- | --- |
| CC(=O)CCCC(=O)O [CA044] | -3.03 | -7.52 |  |  |
| O=C(O)C(Cl)(Cl)Cl [CA073] | 4.86 | -12.6 |  |  |
| Cc1cc(C(=O)N(C)c2ccccc2C(=O)O)sc1C [CA343] | 13.5 | 8.07 |  |  |
| O=C(O)c1ccccc1I [CA004] | -4.47 | -12.2 |  |  |
| O=C(O)c1cccc(S(=O)(=O)NCc2cccs2)c1 [CA095] | 14.6 | 10.3 |  |  |
| O=C(O)C(OC1CCOCC1)c1ccccc1 (centres unmarked) [CA405] | -0.68 | -7.73 |  |  |
| O=C(O)c1ccc(Cn2cc(Br)cn2)o1 [CA224] | 3.05 | 5.82 |  |  |
| O=C(O)c1cnccn1 [CA015] |  |  | -1.35 | -15.60 |
| CC1CN(S(=O)(=O)c2ccc(C(=O)O)cc2)CC(C)O1 (centres unmarked) [CA389] | -6.73 | -5.95 |  |  |
| O=C(O)C1CC(=O)N(OCc2ccccc2)C1 (centres unmarked) [CA452] | -2.07 | -8.76 |  |  |
| O=C(O)c1nn(-c2ccccc2)c(=O)[nH]c1=O [CA441] | -3.61 | -0.87 |  |  |
| COc1cc(C(=O)O)ccc1OCc1c(C)noc1C [CA147] | 5.62 | 3.45 |  |  |
| Cc1nc(-c2ccco2)ccc1C(=O)O [CA331] | 7.93 | -2.82 |  |  |
| O=C(O)CCCCBr [CA023] | -5.49 | -14.3 |  |  |
| O=C(O)c1ccc(N2CCCC2)cc1F [CA064] | -1.15 | -11.3 |  |  |
| O=C(O)c1ccc(-c2ccncc2)[nH]c1=O [CA412] | -8.86 | -7.67 |  |  |
| Cn1nc(C2CCC2)cc1C(=O)O [CA432] | -1.28 | -6.37 |  |  |
| COc1ccc(N2CCN(C(C)C(=O)O)CC2)cc1 (centres unmarked) [CA130] | 7.09 | 7.3 |  |  |
| O=C(O)c1c(F)c(F)c(O)c(F)c1F [CA055] | -5.28 | -14.4 |  |  |
| O=C(O)c1csc(-c2ccccn2)n1 [CA190] | 9.48 | 6.54 |  |  |
